Results on 26 compounds are retold here after US7834011B2, “Heterocyclylalkyl derivatives as novel inhibitors of histone deacetylase” (Janssen Pharmaceutica N.V., priority 2006, dated 2010).

Series [1] addresses histone deacetylase (HeLa nuclear extracts). Kind of series: In vitro assay for inhibition of histone deacetylase with fluorescent-labelled substrate (Fluor de Lys). The format is biochemical. From the text: The in vitro assay for inhibition of histone deacetylase (see example C.1) measures the inhibition of HDAC enzymatic activity obtained with the compounds of formula (I).
The HDAC Fluorescent Activity Assay/Drug Discovery Kit of Biomol (cat. No: AK-500-0001) was used. The HDAC Fluorescent Activity Assay is based on the Fluor de Lys (Fluorogenic Histone deAcetylase Lysyl) substrate and developer combination. The Fluor de Lys substrate, comprises an acetylated lysine side chain. Deacetylation of the substrate sensitizes the substrate so that, in the second step, treatment with the Fluor de Lys developer produces a fluorophore.
HeLa nuclear extracts (supplier: Biomol) were incubated at 60 μg/ml with 75 μM of substrate. The Fluor de Lys substrate was added in a buffer containing 25 mM Tris, 137 mM NaCl, 2.7 mM KCl and 1 mM MgCl2.6H2O at pH 7.4. After 30 min, 1 volume of the developer was added. The fluorophore was excited with 355 nm light and the emitted light (450 nm) was be detected on a fluorometric plate reader.
For each experiment, controls (containing HeLa nuclear extract and buffer), a blank incubation (containing buffer but no HeLa nuclear extract) and samples (containing compound dissolved in DMSO and further diluted in buffer and HeLa nuclear extract) were run in parallel. In first instance, compounds were tested at a concentration of 10^−5M. […] All sample were tested 4 times. In each test the blank value was subtracted from both the control and the sample values. The control sample represented 100% of substrate deactylation. For each sample the fluorescence was expressed as a percentage of the mean value of the controls. […] Herein the effects of test compounds are expressed as pIC50 (the negative log value of the IC50-value) (see Table F-2).

Series [2] concerns A2780 ovarian carcinoma cells. As to the kind of experiment: Antiproliferative activity on A2780 cells (MTT). In kind it is cell-based. Conditions: Homo sapiens, 96 h, four days of incubation, read-out: Cellular activity pIC50 C.2 (converted). The method, then:
Cellular activity of the compounds of formula (I) was determined on A2780 tumour cells using a colorimetric assay for cell toxicity or survival (Mosmann Tim, Journal of Immunological Methods 65: 55-63, 1983)(see example C.2).
All compounds tested were dissolved in DMSO and further dilutions were made in culture medium. Final DMSO concentrations never exceeded 0.1% (v/v) in cell proliferation assays. Controls contained A2780 cells and DMSO without compound and blanks contained DMSO but no cells. MTT was dissolved at 5 mg/ml in PBS. A glycine buffer comprised of 0.1 M glycine and 0.1 M NaCl buffered to pH 10.5 with NaOH (1 N) was prepared (all reagents were from Merck).
The human A2780 ovarian carcinoma cells (a kind gift from Dr. T. C. Hamilton [Fox Chase Cancer Centre, Pennsylvania, USA]) were cultured in RPMI 1640 medium supplemented with 2 mM L-glutamine, 50 μg/ml gentamicin and 10% fetal calf serum. Cells were routinely kept as monolayer cultures at 37° C. in a humidified 5% CO2 atmosphere. Cells were passaged once a week using a trypsin/EDTA solution at a split ratio of 1:40. All media and supplements were obtained from Life Technologies. Cells were free of mycoplasma contamination as determined using the Gen-Probe Mycoplasma Tissue Culture kit (supplier: BioMérieux).
Cells were seeded in NUNC™ 96-well culture plates (Supplier: Life Technologies) and allowed to adhere to the plastic overnight. Densities used for plating were 1500 cells per well in a total volume of 200 μl medium. After cell adhesion to the plates, medium was changed and drugs and/or solvents were added to a final volume of 200 μl. Following four days of incubation, medium was replaced by 200 μl fresh medium and cell density and viability was assessed using an MTT-based assay. To each well, 25 μl MTT solution was added and the cells were further incubated for 2 hours at 37° C. The medium was then carefully aspirated and the blue MTT-formazan product was solubilized by addition of 25 μl glycine buffer followed by 100 μl of DMSO. […] Within an experiment, the results for each experimental condition are the mean of 3 replicate wells. For initial screening purposes, compounds were tested at a single fixed concentration of 10^−6 M. For active compounds, the experiments were repeated to establish full concentration-response curves. For each experiment, controls (containing no drug) and a blank incubation (containing no cells or drugs) were run in parallel. The blank value was subtracted from all control and sample values. For each sample, the mean value for cell growth (in absorbance units) was expressed as a percentage of the mean value for cell growth of the control. […] Herein the effects of test compounds are expressed as pIC50 (the negative log value of the IC50-value)(see Table F-2).

Series [3] in a line: Solubility at pH 2.3 (chemiluminescent nitrogen detector). The format is physicochemical. Conditions: pH 2.3, aqueous buffer; read-out: Solubility C.3.c. pH = 2.3. From the text: In a third method the solubility of a compound at different pH's can be measured with the use of a Chemiluminescent Nitrogen Detector (see example C.3.c).
The solubility of a compound, at pH 2.3, can also be measured with the use of a chemiluminescent nitrogen detector (see Table F-2).

In brackets after ≈: the same amount, converted by molar mass.

Broadly, the melting point is the temperature, or range, at which the solid turns liquid. Regarding `Cn1nc(CNCC2CN(c3ncc(C(=O)NO)cn3)CCO2)c2ccccc21` (stereo not shown) [Compound 4], the melting point was found to be 193 °C. In addition, in series [1], the “Enzymatic activity pIC50 C.1” value was 7.8. Also, the IC50 in series [2] is 200 nM.

Regarding `Cn1nc(CNCC2CN(c3ncc(C(=O)Nc4ccccc4N)cn3)CCO2)c2ccccc21` (stereo not shown) [Compound 5], the melting point was 152 °C.

`Cn1nc(CN2CCN(c3ccc(C(=O)Nc4ccccc4N)cn3)CC2)c2ccccc21` [Compound 6] returned a melting point of 219 °C.

For `Cn1nnc2cc(COCC3CCN(c4ncc(C(=O)NO)cn4)CC3)ccc21` [Compound 7], the melting point was 197 °C. The “Enzymatic activity pIC50 C.1” value in series [1] is reported as 7.8. Moreover, in series [2], the IC50 was 200 nM.

In general, solubility refers to the dissolved amount per volume that the medium holds. For `O=C(NO)c1cnc(N2CCC(CNCc3nc4ccccc4s3)CC2)nc1` [Compound 8], the melting point turned out to be 208 °C. For the same compound, in series [1], the “Enzymatic activity pIC50 C.1” value is reported as 8.2. In addition, the IC50 in series [2] was 100 nM. The solubility in series [3] stood at 2500 µg/mL (≈ 6.27 mM).

As to `CCN(Cc1ccc2c(c1)nnn2C)CC1CCN(c2ncc(C(=O)NO)cn2)CC1` [Compound 9], the melting point amounted to 168 °C. The “Enzymatic activity pIC50 C.1” value in series [1] amounted to 8.3. Also, the IC50 in series [2] is 200 nM. Further, the solubility in series [3] is 2400 µg/mL (≈ 5.65 mM).

In turn, `CCN(Cc1ccc2nnn(C)c2c1)CC1CCN(c2ncc(C(=O)NO)cn2)CC1` [Compound 10] returned a melting point of 110 °C. Also, in series [1], the “Enzymatic activity pIC50 C.1” value is 8.7. In addition, in series [2], the IC50 was 50.1 nM. The solubility in series [3] was 2700 µg/mL (≈ 6.36 mM).

Compound `Cn1nnc2cc(CN(CC3CCN(c4ncc(C(=O)NO)cn4)CC3)C(=O)NO)ccc21` [Compound 11] came in with a melting point of 130 °C. For the same compound, the “Enzymatic activity pIC50 C.1” value in series [1] came to 8.5. Further, the IC50 in series [2] is 794 nM.

In the case of `Cn1nnc2ccc(CN(CC3CCN(c4ncc(C(=O)NO)cn4)CC3)S(C)(=O)=O)cc21` [Compound 12], the melting point worked out at 260 °C. Also, in series [1], the “Enzymatic activity pIC50 C.1” value is reported as 7.8. Besides, the IC50 in series [2] was 1260 nM. Further, the solubility in series [3] is less than 10 µg/mL.

For the compound `CCC(=O)N(Cc1nn(C)c2ccccc12)CC1CCN(c2ncc(C(=O)NO)cn2)CC1` [Compound 13], the melting point was found to be 199 °C. The “Enzymatic activity pIC50 C.1” value in series [1] was determined as 7.6. The IC50 in series [2] was 251 nM. Further, the solubility in series [3] is less than 10 µg/mL.

As for `Cn1nc(CN2CCN(c3ccc(C(=O)NO)cn3)CC2)c2ccccc21` [Compound 14], the “Enzymatic activity pIC50 C.1” value in series [1] turned out to be 7.5. For the same compound, the IC50 in series [2] was 158 nM.

Take `Cn1cc(CNCC2CCN(c3ncc(C(=O)NO)cn3)CC2)c2cccnc21` [Compound 15]: the “Enzymatic activity pIC50 C.1” value in series [1] was 8.2. Moreover, the IC50 in series [2] was 39.8 nM.

In the case of `Cn1nc(CNCC2CCN(c3ccc(C(=O)NO)cn3)CC2)c2ccccc21` [Compound 16], the “Enzymatic activity pIC50 C.1” value in series [1] is recorded as 7.5. Further, the IC50 in series [2] was 100 nM.

For `CCCn1nc(CNCC2CCN(c3ncc(C(=O)NO)cn3)CC2)c2ccccc21` [Compound 17], the “Enzymatic activity pIC50 C.1” value in series [1] was 9.0. The IC50 in series [2] is 31.6 nM. Besides, in series [3], the solubility was determined as 3800 µg/mL (≈ 8.97 mM).

Regarding `CC(C)n1nnc2cc(CNCC3CCN(c4ncc(C(=O)NO)cn4)CC3)ccc21` [Compound 18], the “Enzymatic activity pIC50 C.1” value in series [1] came to 7.6. Further, the IC50 in series [2] is 158 nM.

Take `Cn1nc2ccccc2c1CNCC1CCN(c2ncc(C(=O)NO)cn2)CC1` [Compound 19]: the “Enzymatic activity pIC50 C.1” value in series [1] was 8.1. For the same compound, the IC50 in series [2] is 1580 nM. The solubility in series [3] was 2500 µg/mL (≈ 6.32 mM).

On to `Cn1nnc2cc(CNCC3CCN(c4ncc(C(=O)NO)cn4)CC3)ccc21` [Compound 20], for which the “Enzymatic activity pIC50 C.1” value in series [1] amounted to 7.8. The IC50 in series [2] was 158 nM. In addition, in series [3], the solubility was determined as 2500 µg/mL (≈ 6.31 mM).

With `CC(=O)N(Cc1nc2ccccc2n1C)CC1CCN(c2ncc(C(=O)NO)cn2)CC1` [Compound 21], the “Enzymatic activity pIC50 C.1” value in series [1] was 7.5. In series [2], the IC50 was 794 nM. The solubility in series [3] came to 1900 µg/mL (≈ 4.34 mM).

With `Cc1nc2ccc(CNCC3CCN(c4ncc(C(=O)NO)cn4)CC3)cc2[nH]1` [Compound 23], the “Enzymatic activity pIC50 C.1” value in series [1] is 8.0. In addition, the IC50 in series [2] is 1000 nM.

With `CCN(Cc1ccc2c(c1)nnn2C(C)C)CC1CCN(c2ncc(C(=O)NO)cn2)CC1` [Compound 24], the “Enzymatic activity pIC50 C.1” value in series [1] is 8.4. The IC50 in series [2] was 50.1 nM. In series [3], the solubility is 4600 µg/mL (≈ 10.2 mM).

As to `Cn1nnc2cc(CN(CC#N)CC3CCN(c4ncc(C(=O)NO)cn4)CC3)ccc21` [Compound 25], the “Enzymatic activity pIC50 C.1” value in series [1] is given as 7.7. The IC50 in series [2] is 126 nM.

`CC(=O)N(Cc1ccc2c(c1)nnn2C)CC1CCN(c2ncc(C(=O)NO)cn2)CC1` [Compound 26]: the “Enzymatic activity pIC50 C.1” value in series [1] is reported as 7.4. In series [2], the IC50 is 1580 nM.

Take `CCC(=O)N(Cc1ccc2nnn(C)c2c1)CC1CCN(c2ncc(C(=O)NO)cn2)CC1` [Compound 27]: the “Enzymatic activity pIC50 C.1” value in series [1] is 6.9. In addition, the IC50 in series [2] was 2000 nM. In addition, the solubility in series [3] is less than 10 µg/mL.

With `CCCn1nc(CN(CC2CCN(c3ncc(C(=O)NO)cn3)CC2)C(=O)CC)c2ccccc21` [Compound 28], in series [1], the “Enzymatic activity pIC50 C.1” value was determined as 7.4. Besides, the IC50 in series [2] was 251 nM. In series [3], the solubility turned out to be 10 µg/mL (≈ 0.0209 mM).

For `CC(=O)N(Cc1ccc2c(c1)nnn2C(C)C)CC1CCN(c2ncc(C(=O)NO)cn2)CC1` [Compound 29], the “Enzymatic activity pIC50 C.1” value in series [1] came to 7.2. Moreover, the IC50 in series [2] is 794 nM. For the same compound, the solubility in series [3] was 400 µg/mL (≈ 0.857 mM).

On to `CCCn1nc(CN2CCN(c3ccc(C(=O)Nc4cc(-c5cccs5)ccc4N)cn3)CC2)c2ccccc21` [Compound 31], for which the melting point came to 138 °C.
